Laboratory results as given in PMC9329436, “Optimization of the 4-anilinoquin(az)oline scaffold as epidermal growth factor receptor (EGFR) inhibitors for chordoma utilizing a toxicology profiling assay platform” (Scientific Reports, 2022).
Where two headings read alike, the source gives them in different places.

Legend:
Format in all cases: biochemical
[1] = biological target: 320 wild-type protein kinases (Homo sapiens, UniProt Q9UIK4); settings: singlicate
From the text: (§1) Table S4. Profiling of two compounds at two concentrations against 320 wild-type protein kinases; singlicate measurement; Residual activities (% of control).

[2] = biological target: 320 wild-type protein kinases (Homo sapiens, UniProt P78368); settings: singlicate
From the text: as §1

[3] = biological target: 320 wild-type protein kinases (Homo sapiens, UniProt P16234); settings: PDGFR-alpha, singlicate
From the text: as §1

[4] = biological target: T1, 320 wild-type protein kinases (Homo sapiens, UniProt Q16566); settings: singlicate
T1 sequence (Q16566 1-473): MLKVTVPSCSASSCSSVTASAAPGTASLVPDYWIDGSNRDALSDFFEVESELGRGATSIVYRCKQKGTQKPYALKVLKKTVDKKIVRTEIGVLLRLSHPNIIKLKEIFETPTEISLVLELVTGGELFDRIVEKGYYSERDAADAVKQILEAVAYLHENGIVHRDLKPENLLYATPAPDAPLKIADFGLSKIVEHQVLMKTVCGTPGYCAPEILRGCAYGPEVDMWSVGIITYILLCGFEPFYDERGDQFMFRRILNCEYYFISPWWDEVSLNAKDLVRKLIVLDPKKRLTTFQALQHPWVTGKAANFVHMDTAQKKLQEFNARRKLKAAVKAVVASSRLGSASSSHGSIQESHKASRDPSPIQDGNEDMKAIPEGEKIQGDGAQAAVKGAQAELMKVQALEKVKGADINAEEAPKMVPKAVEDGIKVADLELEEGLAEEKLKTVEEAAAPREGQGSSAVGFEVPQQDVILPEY
From the text: as §1

[5] = biological target: T2, 320 wild-type protein kinases (Homo sapiens, UniProt Q96PY6); settings: singlicate
T2 sequence (Q96PY6 1-1258): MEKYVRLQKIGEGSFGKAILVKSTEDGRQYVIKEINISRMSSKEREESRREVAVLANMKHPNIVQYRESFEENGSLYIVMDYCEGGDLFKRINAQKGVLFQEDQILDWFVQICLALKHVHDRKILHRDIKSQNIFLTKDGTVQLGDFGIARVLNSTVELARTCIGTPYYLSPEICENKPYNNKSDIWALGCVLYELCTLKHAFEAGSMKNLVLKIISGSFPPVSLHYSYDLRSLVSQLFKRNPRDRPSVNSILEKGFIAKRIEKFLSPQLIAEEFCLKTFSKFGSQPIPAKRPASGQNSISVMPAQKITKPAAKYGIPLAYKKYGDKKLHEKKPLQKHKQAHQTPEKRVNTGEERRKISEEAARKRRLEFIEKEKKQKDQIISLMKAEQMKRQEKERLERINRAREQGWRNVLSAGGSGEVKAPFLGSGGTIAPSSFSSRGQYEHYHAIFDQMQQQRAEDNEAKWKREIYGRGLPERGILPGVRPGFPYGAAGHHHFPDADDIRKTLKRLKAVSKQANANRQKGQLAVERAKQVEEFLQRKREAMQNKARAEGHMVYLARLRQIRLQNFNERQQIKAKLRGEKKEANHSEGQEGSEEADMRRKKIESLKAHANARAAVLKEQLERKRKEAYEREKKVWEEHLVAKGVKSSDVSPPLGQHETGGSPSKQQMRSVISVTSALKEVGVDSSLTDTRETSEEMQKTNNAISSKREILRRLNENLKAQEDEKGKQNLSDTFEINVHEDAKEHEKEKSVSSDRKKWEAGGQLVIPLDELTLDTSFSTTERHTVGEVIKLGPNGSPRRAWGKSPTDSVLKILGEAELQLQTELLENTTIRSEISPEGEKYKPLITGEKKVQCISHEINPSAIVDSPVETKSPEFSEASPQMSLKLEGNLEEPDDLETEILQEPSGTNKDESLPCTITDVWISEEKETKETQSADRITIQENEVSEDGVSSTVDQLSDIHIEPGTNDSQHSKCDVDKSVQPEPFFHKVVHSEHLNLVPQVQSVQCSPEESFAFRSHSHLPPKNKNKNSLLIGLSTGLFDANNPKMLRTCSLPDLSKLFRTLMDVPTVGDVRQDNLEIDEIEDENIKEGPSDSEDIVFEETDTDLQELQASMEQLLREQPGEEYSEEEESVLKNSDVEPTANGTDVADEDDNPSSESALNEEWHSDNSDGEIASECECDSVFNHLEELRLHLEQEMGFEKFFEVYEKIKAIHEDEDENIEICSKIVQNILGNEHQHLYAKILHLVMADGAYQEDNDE
From the text: as §1

[6] = biological target: 320 wild-type protein kinases (Homo sapiens, UniProt Q15746); settings: MYLK, singlicate
From the text: as §1

[7] = biological target: T3, 320 wild-type protein kinases (Homo sapiens, UniProt P52564, S207D/T211D); settings: MKK6 S207D/T211D**, singlicate
T3 sequence (P52564 1-334 S207D/T211D): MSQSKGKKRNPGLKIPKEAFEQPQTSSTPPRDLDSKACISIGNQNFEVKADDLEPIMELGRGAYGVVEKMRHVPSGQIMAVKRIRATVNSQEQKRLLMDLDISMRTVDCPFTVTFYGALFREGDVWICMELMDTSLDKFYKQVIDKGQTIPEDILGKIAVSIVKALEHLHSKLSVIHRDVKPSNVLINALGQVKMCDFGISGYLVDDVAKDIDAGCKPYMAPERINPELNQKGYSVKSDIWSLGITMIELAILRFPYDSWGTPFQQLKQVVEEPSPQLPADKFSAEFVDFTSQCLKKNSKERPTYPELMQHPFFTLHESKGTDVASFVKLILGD
From the text: as §1

[8] = biological target: 320 wild-type protein kinases (Homo sapiens, UniProt P29376); settings: LTK, singlicate
From the text: as §1

[9] = biological target: 320 wild-type protein kinases (Homo sapiens, UniProt Q16584); settings: singlicate
From the text: as §1

320 wild-type protein kinases (Homo sapiens, UniProt Q15746), sequence (Q15746 whole entry): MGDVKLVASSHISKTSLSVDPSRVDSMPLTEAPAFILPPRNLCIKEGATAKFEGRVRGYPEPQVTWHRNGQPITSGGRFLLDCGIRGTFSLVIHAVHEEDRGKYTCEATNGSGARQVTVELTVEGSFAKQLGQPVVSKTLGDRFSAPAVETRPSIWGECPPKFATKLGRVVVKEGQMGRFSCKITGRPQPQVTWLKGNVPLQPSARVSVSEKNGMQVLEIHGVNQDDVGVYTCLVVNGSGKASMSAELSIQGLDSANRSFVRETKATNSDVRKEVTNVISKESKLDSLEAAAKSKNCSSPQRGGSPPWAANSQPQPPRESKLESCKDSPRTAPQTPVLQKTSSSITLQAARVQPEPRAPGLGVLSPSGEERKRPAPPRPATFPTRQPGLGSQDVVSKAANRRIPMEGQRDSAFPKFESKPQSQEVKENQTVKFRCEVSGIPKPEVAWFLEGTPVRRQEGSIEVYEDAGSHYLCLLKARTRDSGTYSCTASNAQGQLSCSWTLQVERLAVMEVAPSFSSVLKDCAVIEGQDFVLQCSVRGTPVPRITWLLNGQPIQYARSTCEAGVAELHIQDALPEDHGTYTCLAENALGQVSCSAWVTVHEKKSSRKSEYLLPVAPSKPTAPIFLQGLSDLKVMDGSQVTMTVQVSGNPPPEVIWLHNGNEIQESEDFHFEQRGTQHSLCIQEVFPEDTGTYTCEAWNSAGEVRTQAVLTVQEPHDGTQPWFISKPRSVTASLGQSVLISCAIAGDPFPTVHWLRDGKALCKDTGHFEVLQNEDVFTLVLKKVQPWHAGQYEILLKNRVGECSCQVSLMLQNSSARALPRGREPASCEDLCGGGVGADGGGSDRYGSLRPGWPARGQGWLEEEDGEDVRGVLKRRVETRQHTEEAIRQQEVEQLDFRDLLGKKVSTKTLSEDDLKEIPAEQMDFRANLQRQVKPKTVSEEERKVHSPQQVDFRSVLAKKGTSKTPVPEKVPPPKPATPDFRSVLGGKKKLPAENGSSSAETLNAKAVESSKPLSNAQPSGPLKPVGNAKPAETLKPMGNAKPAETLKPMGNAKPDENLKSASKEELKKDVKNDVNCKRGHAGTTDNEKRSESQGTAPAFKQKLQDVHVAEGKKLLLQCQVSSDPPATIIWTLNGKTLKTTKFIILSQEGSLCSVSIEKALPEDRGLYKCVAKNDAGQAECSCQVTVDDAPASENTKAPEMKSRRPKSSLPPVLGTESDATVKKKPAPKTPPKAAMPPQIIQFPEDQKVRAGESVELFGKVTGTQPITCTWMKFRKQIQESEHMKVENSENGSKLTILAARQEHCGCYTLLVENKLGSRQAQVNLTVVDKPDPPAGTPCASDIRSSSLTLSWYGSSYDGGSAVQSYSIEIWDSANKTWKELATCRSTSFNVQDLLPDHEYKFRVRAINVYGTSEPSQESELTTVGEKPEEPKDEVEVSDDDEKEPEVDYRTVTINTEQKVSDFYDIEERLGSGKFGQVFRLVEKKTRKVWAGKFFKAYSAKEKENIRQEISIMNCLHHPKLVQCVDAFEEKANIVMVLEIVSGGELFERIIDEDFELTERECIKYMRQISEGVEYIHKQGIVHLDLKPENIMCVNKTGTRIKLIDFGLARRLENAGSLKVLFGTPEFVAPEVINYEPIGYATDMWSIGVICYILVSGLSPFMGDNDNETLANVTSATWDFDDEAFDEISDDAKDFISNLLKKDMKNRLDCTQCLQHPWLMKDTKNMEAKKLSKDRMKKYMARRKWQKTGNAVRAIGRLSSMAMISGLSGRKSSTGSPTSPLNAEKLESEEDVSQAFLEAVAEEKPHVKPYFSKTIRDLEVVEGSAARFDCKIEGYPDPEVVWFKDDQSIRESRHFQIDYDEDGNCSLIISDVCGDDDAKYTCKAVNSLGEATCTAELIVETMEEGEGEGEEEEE
320 wild-type protein kinases (Homo sapiens, UniProt P16234), sequence (P16234 24-1089): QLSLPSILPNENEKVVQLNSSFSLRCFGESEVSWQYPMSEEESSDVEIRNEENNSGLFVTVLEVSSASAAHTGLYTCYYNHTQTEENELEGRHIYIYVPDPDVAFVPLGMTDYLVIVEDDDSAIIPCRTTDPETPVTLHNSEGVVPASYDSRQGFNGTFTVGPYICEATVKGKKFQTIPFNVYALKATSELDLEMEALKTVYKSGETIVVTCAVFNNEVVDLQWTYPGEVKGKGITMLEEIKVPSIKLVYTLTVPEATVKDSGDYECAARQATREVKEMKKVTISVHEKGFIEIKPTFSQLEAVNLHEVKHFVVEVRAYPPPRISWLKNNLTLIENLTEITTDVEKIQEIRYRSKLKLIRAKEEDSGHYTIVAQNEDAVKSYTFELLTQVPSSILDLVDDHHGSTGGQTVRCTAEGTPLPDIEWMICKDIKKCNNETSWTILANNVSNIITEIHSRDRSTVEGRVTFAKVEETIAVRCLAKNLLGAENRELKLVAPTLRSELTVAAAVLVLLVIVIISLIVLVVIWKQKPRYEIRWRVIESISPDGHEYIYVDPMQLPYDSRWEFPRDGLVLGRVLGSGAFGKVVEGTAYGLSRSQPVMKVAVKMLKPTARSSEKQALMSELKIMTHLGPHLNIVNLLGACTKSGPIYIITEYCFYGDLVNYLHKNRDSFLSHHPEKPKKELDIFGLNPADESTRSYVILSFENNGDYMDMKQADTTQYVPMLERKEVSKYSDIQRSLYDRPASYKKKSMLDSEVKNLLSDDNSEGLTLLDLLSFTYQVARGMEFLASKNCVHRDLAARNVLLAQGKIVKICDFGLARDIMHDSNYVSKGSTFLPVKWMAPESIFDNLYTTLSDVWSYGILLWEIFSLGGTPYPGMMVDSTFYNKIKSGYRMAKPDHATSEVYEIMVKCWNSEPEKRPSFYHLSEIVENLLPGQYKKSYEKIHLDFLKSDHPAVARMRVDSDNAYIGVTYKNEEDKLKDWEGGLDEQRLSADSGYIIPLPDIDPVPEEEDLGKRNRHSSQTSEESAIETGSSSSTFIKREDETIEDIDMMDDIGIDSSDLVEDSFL
320 wild-type protein kinases (Homo sapiens, UniProt Q9UIK4), sequence (Q9UIK4 whole entry): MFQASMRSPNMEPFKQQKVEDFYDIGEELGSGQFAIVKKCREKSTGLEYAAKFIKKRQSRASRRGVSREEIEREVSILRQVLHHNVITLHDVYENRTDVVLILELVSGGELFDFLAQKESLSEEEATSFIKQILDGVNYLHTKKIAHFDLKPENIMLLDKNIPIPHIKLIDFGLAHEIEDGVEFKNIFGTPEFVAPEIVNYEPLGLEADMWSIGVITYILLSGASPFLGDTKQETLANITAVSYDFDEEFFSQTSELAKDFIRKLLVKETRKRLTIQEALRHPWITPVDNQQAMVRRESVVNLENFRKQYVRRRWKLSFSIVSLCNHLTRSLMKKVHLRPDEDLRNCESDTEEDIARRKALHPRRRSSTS
320 wild-type protein kinases (Homo sapiens, UniProt Q16584), sequence (Q16584 whole entry): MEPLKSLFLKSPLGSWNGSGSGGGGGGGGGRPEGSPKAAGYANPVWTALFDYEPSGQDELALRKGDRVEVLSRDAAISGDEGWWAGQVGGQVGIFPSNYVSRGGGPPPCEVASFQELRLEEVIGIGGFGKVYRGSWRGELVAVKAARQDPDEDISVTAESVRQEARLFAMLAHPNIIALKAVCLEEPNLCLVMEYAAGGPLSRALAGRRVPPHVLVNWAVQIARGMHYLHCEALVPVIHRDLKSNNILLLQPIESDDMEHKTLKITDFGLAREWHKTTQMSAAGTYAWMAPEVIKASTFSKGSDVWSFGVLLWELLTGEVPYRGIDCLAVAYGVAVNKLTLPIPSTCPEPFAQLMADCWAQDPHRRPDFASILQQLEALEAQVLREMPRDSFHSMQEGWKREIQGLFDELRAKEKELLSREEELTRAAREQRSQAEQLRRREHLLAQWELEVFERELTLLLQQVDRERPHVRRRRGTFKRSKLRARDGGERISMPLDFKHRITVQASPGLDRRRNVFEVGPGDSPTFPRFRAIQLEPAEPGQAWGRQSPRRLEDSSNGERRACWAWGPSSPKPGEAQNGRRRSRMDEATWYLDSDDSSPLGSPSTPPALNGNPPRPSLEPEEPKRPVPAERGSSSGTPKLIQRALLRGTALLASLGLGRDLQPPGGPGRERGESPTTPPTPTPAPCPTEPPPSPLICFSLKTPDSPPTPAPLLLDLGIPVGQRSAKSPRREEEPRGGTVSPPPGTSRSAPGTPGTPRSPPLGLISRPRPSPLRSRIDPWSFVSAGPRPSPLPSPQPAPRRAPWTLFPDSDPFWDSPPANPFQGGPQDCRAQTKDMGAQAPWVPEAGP
320 wild-type protein kinases (Homo sapiens, UniProt P78368), sequence (P78368 whole entry): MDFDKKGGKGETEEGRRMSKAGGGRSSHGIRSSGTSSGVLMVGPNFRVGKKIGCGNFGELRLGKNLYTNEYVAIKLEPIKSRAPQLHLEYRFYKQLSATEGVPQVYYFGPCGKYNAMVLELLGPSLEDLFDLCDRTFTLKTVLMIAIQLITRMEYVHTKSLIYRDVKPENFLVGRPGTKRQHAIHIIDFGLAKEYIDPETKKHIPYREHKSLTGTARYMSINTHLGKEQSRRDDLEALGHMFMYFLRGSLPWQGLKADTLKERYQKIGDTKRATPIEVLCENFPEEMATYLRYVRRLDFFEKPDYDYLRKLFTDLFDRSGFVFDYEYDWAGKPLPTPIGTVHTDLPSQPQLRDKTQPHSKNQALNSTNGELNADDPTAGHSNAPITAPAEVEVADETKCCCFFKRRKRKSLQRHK

SMILES	Residual activity ([1]; DAPK2, 1.0E-06 M)	Residual activity ([1]; DAPK2, 1.0E-07 M)	Residual activity ([2]; CK1-gamma2, 1.0E-06 M)	Residual activity ([2]; CK1-gamma2, 1.0E-07 M)	Residual activity ([3]; 1.0E-06 M)	Residual activity ([3]; 1.0E-07 M)	Residual activity ([4]; CAMK4, 1.0E-06 M)	Residual activity ([4]; CAMK4, 1.0E-07 M)	Residual activity ([5]; NEK1, 1.0E-06 M)	Residual activity ([5]; NEK1, 1.0E-07 M)	Residual activity ([6]; 1.0E-06 M)	Residual activity ([6]; 1.0E-07 M)	Residual activity ([7]; 1.0E-06 M)	Residual activity ([7]; 1.0E-07 M)	Residual activity ([8]; 1.0E-06 M)	Residual activity ([8]; 1.0E-07 M)	Residual activity ([9]; MAP3K11, 1.0E-06 M)	Residual activity ([9]; MAP3K11, 1.0E-07 M)
C#Cc1cc(Nc2ncnc3cc(I)ccc23)ccc1Cl [Compound 41]	118 % of control	113 % of control	112 % of control	119 % of control	117 % of control	118 % of control	91 % of control	84 % of control	82 % of control	86 % of control	58 % of control	98 % of control	98 % of control	90 % of control	77 % of control	106 % of control	73 % of control	75 % of control
C#Cc1cc(Nc2ncnc3cc(OC)c(OC)cc23)ccc1Cl [Compound 45]	101 % of control	132 % of control	109 % of control	111 % of control	95 % of control	105 % of control	89 % of control	84 % of control	89 % of control	89 % of control	71 % of control	92 % of control	90 % of control	95 % of control	54 % of control	100 % of control	59 % of control	79 % of control
